# Tests used:
# [1] = target: Beta-3 adrenergic receptor (Homo sapiens, UniProt P13945); experiment: DRUGMATRIX: Adrenergic beta3 radioligand binding (ligand: [125I] Cyanopindolol); type: cell membranes, HEK293, Membrane; details: Not Active = under 50% inhibition at 10 µM
# [2] = DRUGMATRIX: Platelet-Derived Growth Factor (PDGF) radioligand binding (ligand: [125I] PDGF); type: cell-based; details: nih3t3; Not Active = under 50% inhibition at 10 µM
# [3] = DRUGMATRIX: Glutamate, NMDA, Phencyclidine radioligand binding (ligand: [3H] TCP); type: cell membranes, Rattus norvegicus, Wistar, Cerebral cortex, Membrane; details: Not Active = under 50% inhibition at 10 µM
# [4] = DRUGMATRIX: Phorbol Ester radioligand binding (ligand: [3H] PDBu); type: cell membranes, Mus musculus, ICR, Brain, Membrane; details: Not Active = under 50% inhibition at 10 µM
# Estrogen receptor = target: T1, Estrogen receptor (Homo sapiens, UniProt P03372); details: sf9; also: in other assays of this panel Not Active means under 50% inhibition at 10 µM
# T1 sequence (P03372 whole entry): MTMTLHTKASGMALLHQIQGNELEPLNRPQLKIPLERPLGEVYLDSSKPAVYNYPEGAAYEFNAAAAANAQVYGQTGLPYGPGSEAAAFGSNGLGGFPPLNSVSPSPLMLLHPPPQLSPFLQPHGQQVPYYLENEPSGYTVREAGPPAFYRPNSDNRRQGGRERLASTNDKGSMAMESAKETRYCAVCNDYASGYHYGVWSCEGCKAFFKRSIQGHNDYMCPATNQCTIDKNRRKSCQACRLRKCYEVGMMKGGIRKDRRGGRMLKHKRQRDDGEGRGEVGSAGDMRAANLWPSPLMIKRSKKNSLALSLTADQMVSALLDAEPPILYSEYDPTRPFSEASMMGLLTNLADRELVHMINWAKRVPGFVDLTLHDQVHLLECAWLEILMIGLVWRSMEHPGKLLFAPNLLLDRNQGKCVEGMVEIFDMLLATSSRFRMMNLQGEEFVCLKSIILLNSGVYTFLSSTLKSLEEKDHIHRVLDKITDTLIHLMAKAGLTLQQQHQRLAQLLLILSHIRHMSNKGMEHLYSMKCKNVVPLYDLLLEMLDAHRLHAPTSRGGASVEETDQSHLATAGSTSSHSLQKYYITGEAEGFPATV
# Endothelin-1 receptor = target: T2, Endothelin-1 receptor (Homo sapiens, UniProt P25101); type: cell membranes, Membrane; details: cho-k1; also: in other assays of this panel Not Active means under 50% inhibition at 10 µM
# T2 sequence (P25101 whole entry): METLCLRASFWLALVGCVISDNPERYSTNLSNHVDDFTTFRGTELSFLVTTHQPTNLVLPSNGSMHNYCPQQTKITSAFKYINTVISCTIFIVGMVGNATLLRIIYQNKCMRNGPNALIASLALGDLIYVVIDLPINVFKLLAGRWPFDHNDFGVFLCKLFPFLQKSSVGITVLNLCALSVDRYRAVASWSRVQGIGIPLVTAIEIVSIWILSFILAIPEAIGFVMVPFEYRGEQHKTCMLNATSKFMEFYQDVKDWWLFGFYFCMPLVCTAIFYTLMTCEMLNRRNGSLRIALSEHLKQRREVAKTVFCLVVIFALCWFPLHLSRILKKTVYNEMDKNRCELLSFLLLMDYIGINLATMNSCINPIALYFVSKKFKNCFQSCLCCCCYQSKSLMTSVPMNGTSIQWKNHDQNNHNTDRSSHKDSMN
# Interstitial collagenase = target: T3, Interstitial collagenase (Homo sapiens, UniProt P03956); experiment: biochemical; type: tissue-based, Rheumatoid synovial fibroblasts;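 also: MMP-1 enzyme inhibition assay using a peptide substrate; in other assays of this panel Not Active means under 50% inhibition at 10 µM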
# T3 sequence (P03956 whole entry): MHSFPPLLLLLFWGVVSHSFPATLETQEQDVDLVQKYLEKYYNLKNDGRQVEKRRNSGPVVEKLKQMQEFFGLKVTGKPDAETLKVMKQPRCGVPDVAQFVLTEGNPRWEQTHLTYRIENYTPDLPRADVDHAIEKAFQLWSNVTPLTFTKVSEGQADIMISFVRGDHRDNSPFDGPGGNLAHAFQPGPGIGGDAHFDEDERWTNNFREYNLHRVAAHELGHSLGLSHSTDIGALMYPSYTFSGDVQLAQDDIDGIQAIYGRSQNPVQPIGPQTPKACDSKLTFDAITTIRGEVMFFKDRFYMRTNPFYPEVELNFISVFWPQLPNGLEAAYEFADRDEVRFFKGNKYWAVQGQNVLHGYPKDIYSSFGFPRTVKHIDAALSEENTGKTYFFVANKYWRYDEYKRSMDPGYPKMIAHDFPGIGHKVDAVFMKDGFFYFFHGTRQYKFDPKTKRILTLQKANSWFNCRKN
# Sequence of Beta-3 adrenergic receptor (P13945 whole entry): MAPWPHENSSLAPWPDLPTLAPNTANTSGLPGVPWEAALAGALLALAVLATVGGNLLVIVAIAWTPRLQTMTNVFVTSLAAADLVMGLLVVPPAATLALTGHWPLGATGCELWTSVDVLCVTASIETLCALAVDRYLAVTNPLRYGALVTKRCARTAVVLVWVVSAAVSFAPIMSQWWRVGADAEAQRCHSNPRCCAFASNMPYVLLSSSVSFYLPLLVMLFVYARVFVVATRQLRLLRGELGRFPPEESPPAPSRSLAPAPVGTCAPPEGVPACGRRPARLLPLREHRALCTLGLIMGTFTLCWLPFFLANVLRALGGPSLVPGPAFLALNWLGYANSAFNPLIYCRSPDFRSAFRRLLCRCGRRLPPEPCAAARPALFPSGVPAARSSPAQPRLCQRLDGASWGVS
Structure (SMILES),IC50 ([1]; hek293),IC50 [2],Ki [2],IC50 [3],Ki [3],IC50 [4],Ki [4],IC50 (Estrogen receptor),IC50 (Endothelin-1 receptor),IC50 (Interstitial collagenase),IC50 ([1]; read-out: IC50) [nM],Ki ([1]; read-out: Ki) [nM]
O=C(c1ccccc1C(F)(F)F)N1CCC(Cc2ccccc2)CC1,Not Active,Not Active,Not Active,Not Active,Not Active,Not Active,Not Active,Not Active,Not Active,Not Active,–,–
O=C/C=C/c1ccccc1,Not Active,Not Active,Not Active,Not Active,Not Active,Not Active,Not Active,Not Active,Not Active,Not Active,–,–
Nc1ccc2c3c(cccc13)C(=O)NC2=O,Not Active,Not Active,Not Active,Not Active,Not Active,Not Active,Not Active,Not Active,Not Active,Not Active,–,–
O=c1cnn([C@@H]2O[C@H](CO)[C@@H](O)[C@H]2O)c(=O)[nH]1 [6-AZAURIDINE],Not Active,Not Active,Not Active,Not Active,Not Active,Not Active,Not Active,Not Active,Not Active,Not Active,–,–
CC[C@H](C)[C@H]1O[C@]2(C=C[C@@H]1C)C[C@@H]1C[C@@H](C/C=C(\C)[C@@H](O[C@H]3C[C@H](OC)[C@@H](O[C@H]4C[C@H](OC)[C@@H](O)[C@H](C)O4)[C@H](C)O3)[C@@H](C)/C=C/C=C3\CO[C@@H]4[C@H](O)C(C)=C[C@@H](C(=O)O1)[C@]34O)O2.CO[C@H]1C[C@H](O[C@H]2[C@H](C)O[C@@H](O[C@@H]3/C(C)=C/C[C@@H]4C[C@@H](C[C@]5(C=C[C@H](C)[C@@H](C(C)C)O5)O4)OC(=O)[C@@H]4C=C(C)[C@@H](O)[C@H]5OC/C(=C\C=C\[C@@H]3C)[C@]54O)C[C@@H]2OC)O[C@@H](C)[C@@H]1O [ABAMECTIN],Not Active,Not Active,Not Active,Not Active,Not Active,Not Active,Not Active,Not Active,Not Active,Not Active,–,–
Cc1nnc2n1-c1ccc(Cl)cc1C(c1ccccc1)=NC2 [ALPRAZOLAM],Not Active,Not Active,Not Active,Not Active,Not Active,Not Active,Not Active,Not Active,Not Active,Not Active,–,–
COc1ccc(C2C(=O)c3ccccc3C2=O)cc1 [ANISINDIONE],Not Active,Not Active,Not Active,Not Active,Not Active,Not Active,Not Active,Not Active,Not Active,Not Active,–,–
CC(C(=O)O)c1ccc2oc(-c3ccc(Cl)cc3)nc2c1 (stereo not given) [BENOXAPROFEN],Not Active,Not Active,Not Active,Not Active,Not Active,Not Active,Not Active,Not Active,Not Active,Not Active,–,–
COc1ccc2cc3[n+](cc2c1OC)CCc1cc2c(cc1-3)OCO2.[Cl-] [BERBERINE CHLORIDE],Not Active,Not Active,Not Active,Not Active,Not Active,Not Active,Not Active,Not Active,Not Active,Not Active,–,–
O=C(O)CCNC(=O)c1ccccc1 [BETAMIPRON],Not Active,Not Active,Not Active,Not Active,Not Active,Not Active,Not Active,Not Active,Not Active,Not Active,–,–
CC(=O)Oc1ccc(C(c2ccc(OC(C)=O)cc2)c2ccccn2)cc1 [BISACODYL],Not Active,Not Active,Not Active,Not Active,Not Active,Not Active,Not Active,Not Active,Not Active,Not Active,–,–
Cc1cc2c(OCC(CNC(C)(C)C)OC(=O)c3ccccc3)cccc2[nH]1 (stereo not given) [BOPINDOLOL],–,Not Active,Not Active,Not Active,Not Active,Not Active,Not Active,Not Active,Not Active,Not Active,458,344
CN/C(=N\CCSCc1nc[nH]c1C)NC#N [CIMETIDINE],Not Active,Not Active,Not Active,Not Active,Not Active,Not Active,Not Active,Not Active,Not Active,Not Active,–,–
COc1cc(N)c(Cl)cc1C(=O)NC1CCN(CCCOc2ccc(F)cc2)CC1OC (stereo not given) [CISAPRIDE],Not Active,Not Active,Not Active,Not Active,Not Active,Not Active,Not Active,Not Active,Not Active,Not Active,–,–
O=C(N/N=C/c1ccc([N+](=O)[O-])o1)c1cc([N+](=O)[O-])cc([N+](=O)[O-])c1O [NIFURSOL],Not Active,Not Active,Not Active,Not Active,Not Active,Not Active,Not Active,–,Not Active,Not Active,–,–
COC(=O)Nc1nc2ccc(C(=O)c3cccs3)cc2[nH]1 [NOCODAZOLE],Not Active,Not Active,Not Active,Not Active,Not Active,Not Active,Not Active,–,Not Active,Not Active,–,–
CCn1cc(C(=O)O)c(=O)c2cnc(N3CCCC3)nc21 [PIROMIDIC ACID],Not Active,Not Active,Not Active,Not Active,Not Active,Not Active,Not Active,–,Not Active,Not Active,–,–
CCCN(CCC)S(=O)(=O)c1ccc(C(=O)O)cc1 [PROBENECID],Not Active,Not Active,Not Active,Not Active,Not Active,Not Active,Not Active,–,Not Active,Not Active,–,–
CCCOc1ccc(C(=O)OCCN(CC)CC)cc1N [PROPARACAINE],Not Active,Not Active,Not Active,Not Active,Not Active,Not Active,Not Active,–,Not Active,Not Active,–,–
C[C@@H]1O[C@@H](O[C@@H]2C=C3CC[C@@H]4[C@H](CC[C@]5(C)[C@@H](c6ccc(=O)oc6)CC[C@]45O)[C@@]3(C)CC2)[C@H](O)[C@H](O)[C@H]1O [PROSCILLARIDIN],Not Active,Not Active,Not Active,Not Active,Not Active,Not Active,Not Active,–,Not Active,Not Active,–,–

# From ChEMBL document CHEMBL1909046, “DrugMatrix in vitro pharmacology data”
